Laboratory results: ChEMBL document CHEMBL3045411, “Efficacy and effects on yield of different fungicides for control of wet bubble disease of mushroom caused by the mycoparasite Mycogone perniciosa” (2010)
In brackets after ≈: the same amount, converted by molar mass.

Tested on: Mycogone perniciosa
Assay: Antimicrobial activity against Mycogone perniciosa isolates assessed as inhibition of mycelial growth after 12 days
Format: functional
Details: 288 h, read-out: ED50 (the source's name)

Row | SMILES | EC50 [µg/mL]
1 | c1ccc2[nH]c(-c3cscn3)nc2c1 [THIABENDAZOLE] | 0.225 (≈ 1.12 µM)
2 | COC(=O)Nc1nc2ccccc2[nH]1 [CARBENDAZIM] | 0.065 (≈ 0.34 µM)
3 | COC(=O)NC(=S)Nc1ccccc1NC(=S)NC(=O)OC [THIOPHANATE METHYL] | 0.773 (≈ 2.26 µM)
4 | CC(C)NC(=O)N1CC(=O)N(c2cc(Cl)cc(Cl)c2)C1=O [IPRODIONE] | 2.69 (≈ 8.14 µM)
